Assay results from US8119624B2, “Fused phenyl amido heterocyclic compounds” (Pfizer Inc., priority 2006, dated 2012).
Read-outs that look alike come from different tables or passages of the source.

Molecular target: T1, Full-length glucokinase (beta cell isoform) (Homo sapiens, UniProt P35557)
T1 construct: Full-length glucokinase (beta cell isoform) was His-tagged at N-terminus; His tag (N); made in house
T1 sequence (P35557 1-465): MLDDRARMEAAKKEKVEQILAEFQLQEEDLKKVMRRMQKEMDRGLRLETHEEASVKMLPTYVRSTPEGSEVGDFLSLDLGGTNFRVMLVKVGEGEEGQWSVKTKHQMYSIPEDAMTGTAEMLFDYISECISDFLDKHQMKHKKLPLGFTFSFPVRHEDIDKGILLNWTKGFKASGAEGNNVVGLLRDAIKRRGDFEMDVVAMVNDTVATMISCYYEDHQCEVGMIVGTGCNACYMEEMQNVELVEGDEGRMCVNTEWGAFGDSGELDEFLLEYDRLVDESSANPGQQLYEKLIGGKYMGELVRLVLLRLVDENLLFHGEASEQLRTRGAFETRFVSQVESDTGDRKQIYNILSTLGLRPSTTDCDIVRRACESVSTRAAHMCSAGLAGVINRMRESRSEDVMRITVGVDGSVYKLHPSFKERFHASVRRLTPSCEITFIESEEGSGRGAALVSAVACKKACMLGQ
Assay: Glucokinase biochemical assay (PK/LDH-coupled, NADH depletion at 340 nm): % activation, EC50, % max activation
Settings: 5 mM glucose; for activation at 10 µM: read-out: % Activation at 10 uM; for EC50: read-out: EC50; for Emax: fitted maximum activation, read-out: % Max Activation
In short: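 N-terminally His-tagged full-length human beta-cell glucokinase, room temperature, 5 mM glucose, 1 mM ATP, PK/LDH-coupled with 0.7 mM NADH, 1% DMSO final. Initial velocity from the 200–900 s slope of A340 decline. % activation = (Va/Vo−1)×100, measured across compound concentrations.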

[1] = 10 uM compound, % Activation=(Va/Vo−1)×100
[2] = compound at 10 uM, 1 mM ATP, room temperature

Row | SMILES | activation at 10 µM [1] | EC50 (GK activation) | Emax | % Activation at 10 uM [1] | activation at 10 µM [2] | EC50 (1 mM ATP, room temperature)
1 | CCS(=O)(=O)c1ccc(Oc2cc(C(=O)Nc3ccn(C)n3)cc3c2CC(C)(C)O3)cc1F [Example 136, 4-(4-Ethanesulfonyl-3-fluoro-phenoxy)-2,2-dimethyl-2,3-dihydro-benzofuran-6-carboxylic acid (1-methyl-1H-pyrazol-3-yl)-amide] | 237% | 120 nM | 236% |  |  | 
2 | CO[C@@H]1CCN(C(=O)c2ccc(Oc3cc(C(=O)Nc4ccn(C)n4)cc4c3CC(C)(C)O4)cc2F)C1 [Example 59, 4-[3-Fluoro-4-((R)-3-methoxy-pyrrolidine-1-carbonyl)-phenoxy]-2,2-dimethyl-2,3-dihydro-benzofuran-6-carboxylic acid(1-methyl-1H-pyrazol-3-yl)-amide] | 172% | 250 nM | 168% |  |  | 
3 | COC(C)CCOc1cc(C(=O)Nc2ccn(C)n2)cc2c1CC(C)(C)O2 (centres unmarked) [Example 101, 4-(3-Methoxy-butoxy)-2,2-dimethyl-2,3-dihydro-benzofuran-6-carboxylic acid (1-methyl-1H-pyrazol-3-yl)-amide] | 94.7% | 6000 nM | 125% |  |  | 
4 | Cc1ccc(NC(=O)c2cc(OCc3ccccc3Cl)cc3c2CCC(C)(C)O3)nc1 [Example 375, 7-(2-Chloro-benzyloxy)-2,2-dimethyl-chroman-5-carboxylic acid(5-methyl-pyridin-2-yl)-amide] |  |  |  | 5.6% |  | 
5 | CCc1cc2c(Oc3ccc(S(C)(=O)=O)cc3)cc(C(=O)Nc3ccc(C)cn3)cc2o1 [Example 274, 2-Ethyl-N-(5-methylpyridin-2-yl)-4-[4-(methylsulfonyl)-phenoxy]-1-benzofuran-6-carboxamide] | 131% | 2400 nM | 121% |  |  | 
6 | COCC1(C)Cc2c(Oc3ccc(C(=O)N(C)C)c(F)c3)cc(C(=O)Nc3ccn(C)n3)cc2O1 (centres unmarked) [Example 234, 4-(4-Dimethylcarbamoyl-3-fluoro-phenoxy)-2-methoxymethyl-2-methyl-2,3-dihydro-benzofuran-6-carboxylic acid (1-methyl-1H-pyrazol-3-yl)-amide] | 121% | 75 nM | 112% |  |  | 
7 | Cn1ccc(NC(=O)c2cc(Oc3ccc(C(=O)N4CCC4)c(F)c3)cc3c2CC(C)(C)O3)n1 [Example 197, 6-[4-(Azetidine-1-carbonyl)-3-fluoro-phenoxy]-2,2-dimethyl-2,3-dihydro-benzofuran-4-carboxylic acid (1-methyl-1H-pyrazol-3-yl)-amide] | 77.6% | > 10000 nM |  |  |  | 
8 | Cc1csc2cc(C(=O)Nc3ccn(C)n3)cc(Oc3ccc(S(C)(=O)=O)cc3)c12 [Example 351, 3-Methyl-N-(1-methyl-1H-pyrazol-3-yl)-4-[4-(methylsulfonyl)-phenoxy]-1-benzothiophene-6-carboxamide] | 0.9% |  |  |  |  | 
9 | Cn1ccc(NC(=O)c2cc(Oc3ccc(C(=O)N4CC(F)(F)C4)c(F)c3)c3c(c2)OC(C)(C)C3)n1 [Example 52, 4-[4-(3,3-Difluoro-azetidine-1-carbonyl)-3-fluoro-phenoxy]-2,2-dimethyl-2,3-dihydro-benzofuran-6-carboxylic acid(1-methyl-1H-pyrazol-3-yl)-amide] | 136% | 280 nM | 151% |  |  | 
10 | Cn1ccc(NC(=O)c2cc(Oc3ccc(-c4ncon4)c(Cl)c3)c3c(c2)OC(C)(C)C3)n1 [Example 189, 4-(3-Chloro-4-[1,2,4]oxadiazol-3-yl-phenoxy)-2,2-dimethyl-2,3-dihydro-benzofuran-6-carboxylic acid (1-methyl-1H-pyrazol-3-yl)-amide] | 219% | 870 nM | 245% |  |  | 
11 | Cc1nc2cc(C(=O)Nc3ccn(C)n3)cc(Oc3ccc(S(C)(=O)=O)cc3)c2o1 [Example 368, 2-Methyl-N-(1-methyl-1H-pyrazol-3-yl)-7-[4-(methylsulfonyl)-phenoxy]-1,3-benzoxazole-5-carboxamide] | 48.2% | > 10000 nM |  |  |  | 
12 | CCc1cc2c(Oc3ccc(S(C)(=O)=O)cc3)cc(C(=O)Nc3ccn(C)n3)cc2o1 [Example 275, 2-Ethyl-N-(1-methyl-1H-pyrazol-3-yl)-4-[4-(methylsulfonyl)-phenoxy]-1-benzofuran-carboxamide] | 211% | 2600 nM | 210% |  |  | 
13 | Cn1ccc(NC(=O)c2cc(Oc3ccc(S(C)(=O)=O)cc3)c3c(c2)C(=O)N(C2CC2)C3)n1 [Example 386, 2-Cyclopropyl-N-(1-methyl-1H-pyrazol-3-yl)-7-(4-(methylsulfonyl)-phenoxy)-3-oxoisoindoline-5-carboxamide] |  |  |  |  | 78.8% | > 10000 nM

Now from value to molecule:

Row | activation at 10 µM [1] | EC50 (GK activation) | Emax | % Activation at 10 uM [1] | activation at 10 µM [2] | EC50 (1 mM ATP, room temperature) | SMILES
14 | 84.3% | 430 nM | 105% |  |  |  | COc1cnc(NC(=O)c2cc(Oc3ccc(C(=O)N(C)C)nc3)c3cc(C)oc3c2)cn1 [Example 279, 5-(6-((5-Methoxypyrazin-2-yl)carbamoyl)-2-methylbenzofuran-4-yloxy)-N,N-dimethylpicolinamide]
15 | 57.5% | > 10000 nM |  |  |  |  | Cn1ccc(NC(=O)c2cc(Oc3ccc(S(C)(=O)=O)cc3)c3occc3c2)n1 [Example 332, N-(1-Methyl-1H-pyrazol-3-yl)-7-[4-(methylsulfonyl)phenoxy]-1-benzofuran-5-carboxamide]
16 | 112% | 5600 nM | 138% |  |  |  | Cc1nc(COc2cc(C(=O)Nc3ccn(C)n3)cc3c2CC(C)(C)O3)cs1 [Example 90, 2,2-Dimethyl-4-(2-methyl-thiazol-4-ylmethoxy)-2,3-dihydro-benzofuran-6-carboxylic acid (1-methyl-1H-pyrazol-3-yl)-amide]
17 | 148% | 2100 nM | 171% |  |  |  | COc1ccc(CC(C)Oc2cc(C(=O)Nc3ccn(C)n3)cc3c2CC(C)(C)O3)cc1 (centres unmarked) [Example 79, 4-[2-(4-Methoxy-phenyl)-1-methyl-ethoxy]-2,2-dimethyl-2,3-dihydro-benzofuran-6-carboxylic acid (1-methyl-1H-pyrazol-3-yl)-amide]
18 |  |  |  | 17.7% |  |  | Cc1ccc(NC(=O)c2cc(OCc3ccccc3Cl)c3c(c2)OC(C)(C)CC3)nc1 [Example 374, 5-(2-Chloro-benzyloxy)-2,2-dimethyl-chroman-7-carboxylic acid(5-methyl-pyridin-2-yl)-amide]
19 | 77.4% | > 10000 nM |  |  |  |  | Cn1ccc(NC(=O)c2cc(Oc3ccc(S(C)(=O)=O)cc3)c3ccsc3c2)n1 [Example 356, 4-(4-(Methylsulfonyl)phenoxy)-N-(1-methyl-1H-pyrazol-3-yl)benzo-[b]-thiophene-6-carboxamide]
20 | 41.2% | > 10000 nM |  |  |  |  | Cc1cc2cc(C(=O)Nc3ccn(C)n3)cc(O[C@@H](C)Cc3ccccc3)c2o1 [Example 340, 2-Methyl-7-[(1S)-1-methyl-2-phenylethoxy]-N-(1-methyl-1H-pyrazol-3-yl)-1-benzofuran-5-carboxamide]
21 |  |  |  |  | -1.85% |  | Cc1ccc(NC(=O)c2cc(OCc3ccccc3)c3c(c2)C(=O)N(C2CC2)C3)nc1 [Example 378, 7-(Benzyloxy)-2-cyclopropyl-N-(5-methylpyridin-2-yl)-3-oxoisoindoline-5-carboxamide]
22 | 118% | 730 nM | 137% |  |  |  | COCc1cc2c(Oc3ccc(S(C)(=O)=O)cc3)cc(C(=O)Nc3ccn(C)n3)cc2o1 [Example 310, 2-(Methoxymethyl)-N-(1-methyl-1H-pyrazol-3-yl)-4-[4-(methylsulfonyl)-phenoxy]-1-benzofuran-6-carboxamide]
23 | 38.2% |  |  |  |  |  | Cn1ccc(NC(=O)c2cc(OCc3cc(O)nc(-c4cnccn4)n3)c3c(c2)OC(C)(C)C3)n1 [Example 88, 4-(6-Hydroxy-2-pyrazin-2-yl-pyrimidin-4-ylmethoxy)-2,2-dimethyl-2,3-dihydro-benzofuran-6-carboxylic acid (1-methyl-1H-pyrazol-3-yl)-amide]
24 | 113% | 160 nM | 158% |  |  |  | Cc1ccc(NC(=O)c2cc(OC(C)C)cc3oc(-c4ccccc4)cc23)nc1 [Example 347, 6-Isopropoxy-N-(5-methylpyridin-2-yl)-2-phenylbenzofuran-4-carboxamide]
25 | 140% | 1050 nM | 156% |  |  |  | Cn1ccc(NC(=O)c2cc(Oc3ccc(C(=O)N4CCOCC4)cc3)c3c(c2)OC(C)(C)C3)n1 [Example 47, 2,2-Dimethyl-4-[4-(morpholine-4-carbonyl)-phenoxy]-2,3-dihydro-benzofuran-6-carboxylic acid(1-methyl-1H-pyrazol-3-yl)-amide]
26 | 100% | 4300 nM | 132% |  |  |  | Cc1ccc(NC(=O)c2cc(Oc3ccc(S(C)(=O)=O)cc3)c3cc(C(F)F)oc3c2)nc1 [Example 321, 2-(Difluoromethyl)-N-(5-methylpyridin-2-yl)-4-[4-(methylsulfonyl)-phenoxy]-1-benzofuran-6-carboxamide]
